{"source": "patent US9540332B2", "about": "“Benzimidazole derivatives as selective blockers of persistent sodium current” (Allergan, Inc., priority 2011, dated 2017)", "key": {"[1]": {"tested_on": "seizures induced by a 6 Hz alternating current in mice", "assay": "6 Hz seizure model", "type": "in vivo", "conditions": "for Protected/Tested: 6 Hz 32 milliamp; for Protected/Tested / Deaths: 0.50 hr; for Deaths: 6 Hz"}, "[2]": {"tested_on": "Experimental Autoimmune Encephalomyelitis (EAE)", "assay": "Experimental Autoimmune Encephalomyelitis (EAE), clinical score and flash VEP", "type": "in vivo, rats", "source_text": "Encephalomyelitis (EAE). (A) Representative flash Visual Evoked Potential (VEP) traces from baseline and following the induction of EAE. Three distinct peaks, N1, P2, N2 are labeled in the traces, with P2 being the most reproducible. Note that following the induction of EAE the latency to the P2 peak is increased. This is associated with a poor visual outcome in Optic Neuritis in humans. […] The maximum clinical score is the score associated with the most severe paralysis each animal experienced during the daily observation period."}, "[3]": {"tested_on": "blue light induced photoreceptor injury", "assay": "blue light induced photoreceptor injury (ERG and histology)", "type": "in vivo, Sprague Dawley rat", "procedure": "Exposure to blue light results in a loss of photoreceptor cells in the outer retina (arrows).\nHemotoxylin and Eosin stained retinal sections are imaged and outer nuclear layer (ONL) thickness and cell count is evaluated in 8 consecutive regions on either side of the optic nerve head (ONH) (A). In Sprague Dawley rat the typical ONL thickness and photoreceptor cell counts adjacent to the ONH are approximately 40 microns and 10 cells, respectively (B). The cell counts and thicknesses from a retinal section taken from the vertical meridian reveal that in naïve retinae they are stable from just adjacent to ONH in to the ora serata (C,D).\nRat eyes were cut parallel to the vertical meridian through the optic nerve head and several sections were collected. […] Within each […] region, 3 measurements, […] apart, were conducted, averaged and reported as ONL thickness (um). The number of rod and cone nuclei spanning the outer nuclear layer at each measurement site were counted manually and tabulated as photoreceptor #. For each animal, two to three sections were analyzed and averaged to give a final quantifiable value."}, "Nav1.3": {"molecular_target": "T1, Nav1.3 (Homo sapiens, UniProt Q9NY46)", "T1 construct": "expressed in transfected cells; host or cells: HEK cells, stably transfected", "T1 sequence (Q9NY46 whole entry)": "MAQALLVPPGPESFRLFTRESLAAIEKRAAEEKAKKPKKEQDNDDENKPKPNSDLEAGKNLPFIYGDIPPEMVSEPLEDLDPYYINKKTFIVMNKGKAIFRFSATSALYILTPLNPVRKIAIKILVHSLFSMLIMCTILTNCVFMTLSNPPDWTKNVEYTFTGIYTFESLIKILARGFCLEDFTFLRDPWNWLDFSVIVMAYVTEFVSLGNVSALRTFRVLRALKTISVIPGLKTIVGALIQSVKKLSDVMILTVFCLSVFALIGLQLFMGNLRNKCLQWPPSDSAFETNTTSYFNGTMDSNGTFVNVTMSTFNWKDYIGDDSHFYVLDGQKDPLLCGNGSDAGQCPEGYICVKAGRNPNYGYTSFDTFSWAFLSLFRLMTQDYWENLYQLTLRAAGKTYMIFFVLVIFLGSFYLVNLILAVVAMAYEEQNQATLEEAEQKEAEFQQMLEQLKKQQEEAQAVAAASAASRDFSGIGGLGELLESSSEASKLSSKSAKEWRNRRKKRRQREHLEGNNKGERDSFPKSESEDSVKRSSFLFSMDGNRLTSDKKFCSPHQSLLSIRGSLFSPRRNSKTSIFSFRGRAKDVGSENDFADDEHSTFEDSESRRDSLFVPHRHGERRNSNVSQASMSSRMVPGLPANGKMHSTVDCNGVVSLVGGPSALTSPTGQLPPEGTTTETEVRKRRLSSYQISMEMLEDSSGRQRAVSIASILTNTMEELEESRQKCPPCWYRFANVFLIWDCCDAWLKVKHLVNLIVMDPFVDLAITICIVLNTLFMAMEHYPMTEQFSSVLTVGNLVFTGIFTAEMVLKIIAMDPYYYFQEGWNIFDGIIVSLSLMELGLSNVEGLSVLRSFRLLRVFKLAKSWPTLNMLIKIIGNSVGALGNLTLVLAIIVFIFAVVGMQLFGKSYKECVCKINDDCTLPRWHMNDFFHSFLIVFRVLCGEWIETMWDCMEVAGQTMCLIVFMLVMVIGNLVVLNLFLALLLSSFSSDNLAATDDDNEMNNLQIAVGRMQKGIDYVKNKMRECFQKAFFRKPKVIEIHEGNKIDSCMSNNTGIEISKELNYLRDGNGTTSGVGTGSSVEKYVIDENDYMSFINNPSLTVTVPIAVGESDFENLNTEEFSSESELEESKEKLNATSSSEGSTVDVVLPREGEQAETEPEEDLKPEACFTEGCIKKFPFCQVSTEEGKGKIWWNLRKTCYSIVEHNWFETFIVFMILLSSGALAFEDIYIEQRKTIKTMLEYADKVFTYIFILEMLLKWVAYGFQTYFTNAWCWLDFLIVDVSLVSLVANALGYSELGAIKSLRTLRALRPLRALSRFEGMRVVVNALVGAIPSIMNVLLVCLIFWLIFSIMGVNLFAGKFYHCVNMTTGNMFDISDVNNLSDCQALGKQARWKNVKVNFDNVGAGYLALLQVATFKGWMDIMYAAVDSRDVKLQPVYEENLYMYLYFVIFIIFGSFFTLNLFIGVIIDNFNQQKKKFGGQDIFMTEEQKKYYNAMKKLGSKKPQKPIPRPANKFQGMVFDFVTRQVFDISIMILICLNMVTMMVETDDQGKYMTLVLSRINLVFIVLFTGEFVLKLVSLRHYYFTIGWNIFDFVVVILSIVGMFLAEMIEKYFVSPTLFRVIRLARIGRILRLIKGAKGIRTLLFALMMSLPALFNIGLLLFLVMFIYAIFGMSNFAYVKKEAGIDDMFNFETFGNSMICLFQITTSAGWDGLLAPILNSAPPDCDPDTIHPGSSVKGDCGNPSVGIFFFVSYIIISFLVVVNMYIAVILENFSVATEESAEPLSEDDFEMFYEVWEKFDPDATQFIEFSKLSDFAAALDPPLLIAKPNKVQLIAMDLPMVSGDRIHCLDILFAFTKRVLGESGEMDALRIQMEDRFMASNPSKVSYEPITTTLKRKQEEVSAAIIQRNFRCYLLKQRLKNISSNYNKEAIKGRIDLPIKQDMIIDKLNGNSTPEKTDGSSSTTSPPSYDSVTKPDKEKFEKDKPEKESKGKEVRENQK", "assay": "gigohm-seal manual patch-clamp (MPC) on HEK cells stably transfected with sodium channels", "type": "cell-based", "procedure": "Therefore, the efficacy and selectivity of the identified persistent current antagonists were verified using conventional gigohm-seal manual patch-clamp (MPC).\nMPC experiments were conducted on human embroynic kidney (HEK) cells stably transfected with sodium channels were plated on coverslips. Cells were patch clamped using standard patch-clamp techniques (Hamill, O. P., A. Marty, et al., 1981 Pflugers Arch. 391:85-100). Once sufficient persistent current was established, buffer was introduced into the chamber at a constant flow rate of […] until the persistent current stabilized. Subsequent concentration-response experiments were conducted using this same flow rate. After application of the compound, current amplitude was monitored until equilibrium was established. The data recorded at equilibrium was normalized to the control current measured during perfusion with control buffer in the absence of a test compound. Adequate solution perfusion and gigohm seal stability were monitored throughout the experiment. The compound's antagonism of persistent or transient sodium currents is expressed as the IC5O of block for the respective current (see Table 1). Selectivity for block of the persistent current was calculated as the ratio of the IC5O for the transient current divided by the IC5O for the persistent current."}, "[4]": {"tested_on": "capsaicin-induced thermal hyperalgesia", "assay": "capsaicin-induced thermal hyperalgesia, plantar test", "type": "in vivo, rat", "conditions": "doses 10 mg/kg and above, i.p., FIG. 10", "source_text": "A second method for evaluating of 1,2 substituted benzimidazoles on neuropathic pain was to determine their effects on capsaicin-induced thermal hyperalgesia in the rat.\nPeripherally administered capsaicin (the active agent in chili peppers) induces an acute, local, inflammatory response through actions on nociceptive sensory nerve endings (‘pain fibers”). In rats, intraplantar injection of capsaicin produces decease in withdrawal latency to radiant heat (thermal hyperalgesia). This primary hyperalgesia, observed at the site of injury, is characterized by sensitization to thermal and mechanical stimulation. Primary hyperalgesia, especially that elicited by noxious thermal stimulus, is mediated, in part, by sensitization of C-fiber mechanoheat (polymodal) receptors (Kennis, 1982; Konietzny and Hensel, 1983; Simone, et al, 1987). […]\nIntraplantar injection of capsaicin ([…]) was used to induce thermal hyperalgesia, as described previously(Gilchrist et al., 1996). […] For this test, hind paw withdrawal latencies (PWLs) to a noxious thermal stimulus were determined using the technique described by Hargreaves et al. (1988) using a plantar test apparatus (PAW\nThermal Analgesia Meter instrument Department of Anesthesiology, UCSD, San Diego, Calif.). Time to remove paw from heat source is measured and expressed as the paw withdrawal latency. […]\nassessed 30 minutes after capsaicin challenge. […]"}, "[5]": {"tested_on": "mechanical allodynia produced by spinal nerve ligation", "assay": "spinal nerve ligation (Chung Model), mechanical allodynia, von Frey hairs", "type": "in vivo, rats", "procedure": "To assess the actions of the presently claimed benzimdazole compounds in neuropathic pain their efficacy in reversing the mechanical allodynia produced by spinal nerve ligation (Chung Model) and reducing the thermal hyperalgesia produced by subcutaneous injection of capsaicin was determined.\nIn the Chung spinal nerve ligation model, rats are anesthetized before surgery. The surgical site is shaved and prepared either with betadine or Novacaine. Incision is made from the thoracic vertebra XIII down toward the sacrum. Muscle tissue is separated from the spinal vertebra (left side) at the L4-S2 levels. The L6 vertebra is located and the transverse process is carefully removed with a small rongeur to expose the L4-L6 spinal nerves. The L5 and L6 spinal nerves are isolated and tightly ligated with 6-0 silk thread. The same procedure is done on the right side as a control, except no ligation of the spinal nerves is performed. […]\nCompounds to be tested were prepared as suspension in vehicle containing 2% sodium carboxymethylcellulose (CMC) and 1% Pluronic FI 27 by vigorous homogenization. […] Tactile allodynia was measured prior to and at increments of 15, 30, 60 and 90 minutes after drug administration using von Frey hairs that are a series of fine hairs with incremental differences in stiffness. […] The applied force has been calculated to range from 0.41 to 15.1 grams. […]"}, "[6]": {"tested_on": "rat cultured hippocampal pyramidal neurons", "assay": "spontaneous firing of cultured hippocampal neurons, whole cell current clamp", "type": "cell-based", "conditions": "1 μM, FIG. 2", "procedure": "Activity of the compounds on the rate of spontaneous firing of neurons was assessed in hippocampal neurons. Hippocampal cells from P-2 rats were cultured for 10-14 days prior to use. Cells were plated on laminin-coated cover slips that could be transferred to a perfusion chamber for conventional whole cell electrophysiological studies. Conventional whole cell current clamp methods were used to record steady state and spontaneous action potentials. Cells were held at their resting potential (Iclamp=0 pA) and spontaneous action potentials were recorded and followed over time. Healthy cells had low rates of spontaneous firing. Spontaneous firing rate increased with metabolic insults to cells, e.g. Mg^2+-depletion or with aging. Spontaneous firing appeared to occur more often in older cell cultures (10-14 days).\nThe “current clamp” mode was employed tomeasure frequency of spontaneous discharge and action potential bursting in the absence and presence of compound #3 (1 μM). […] The results of these experiments contribute to the efficacy profile of the compounds of the present invention."}}, "note": "pIC50: −log10 of the molar value. “Also recorded” adds a separate entry of the source."}
{"compound": "COc1cccc(OCc2nc3ccc(OCCC(C)C)cc3n2CC(C)C)c1", "note": "[Compound #2, 1-Isobutyl-2-(3-methoxy-phenoxymethyl)-6-(3-methyl-butoxy)-1H-benzimidazole]", "values": [{"measurement": "Protected/Tested", "setting": "[1]; dose 12.5 mg/kg", "value": "1/8"}, {"measurement": "Protected/Tested", "setting": "[1]; dose 25.0 mg/kg", "value": "3/8"}, {"measurement": "Protected/Tested", "setting": "[1]; dose 50.0 mg/kg", "value": "3/8"}, {"measurement": "Protected/Tested", "setting": "[1]; dose 100.0 mg/kg", "value": "5/8"}, {"measurement": "Protected/Tested", "setting": "[1]; dose 200.0 mg/kg", "value": "8/8"}, {"measurement": "Deaths", "setting": "[1]; dose 12.5 mg/kg", "value": 0}, {"measurement": "Deaths", "setting": "[1]; dose 25.0 mg/kg", "value": 0}, {"measurement": "Deaths", "setting": "[1]; dose 50.0 mg/kg", "value": 0}, {"measurement": "Deaths", "setting": "[1]; dose 100.0 mg/kg", "value": 0}, {"measurement": "Deaths", "setting": "[1]; dose 200.0 mg/kg", "value": 0}, {"measurement": "EC50 in the 6 Hz seizure model", "setting": "[1]; mice", "value": 50.7, "unit": "mg/kg"}, {"measurement": "predicted TD50", "setting": "[1]; mice", "value": "> 500", "unit": "mg/kg"}, {"measurement": "VEP latency (P2 peak)", "setting": "[2]; 50 mg/kg, FIG. 11 B, C", "value": "preserves VEP latency"}, {"measurement": "maximum clinical score versus vehicle", "setting": "[2]; FIG. 11", "value": "significantly (P<0.01) average lower clinical score"}, {"measurement": "initial clinical sign of paralysis", "setting": "[2]; dose of 30 mg/kg, FIG. 11", "value": "significantly reduces"}, {"measurement": "retinal function and structure as determined by ERG and histology", "setting": "[3]; 30 mg/kg i.p., 6 hour blue light exposure, FIG. 8", "value": "preserves retinal function and structure"}]}
{"compound": "C=C(C)Cn1c(COc2cccc(OC)c2)nc2ccccc21", "note": "[Compound #3, 1-[1-(2-methylprop-2-enyl)benzimidazol-2-ylmethoxy]-3-methoxybenzene]", "values": [{"measurement": "concentration blocking 50% of the persistent current", "setting": "Nav1.3; FIG. 1", "value": "low to submicromolar"}, {"measurement": "pIC50", "setting": "Nav1.3; FIG. 1, read-out: effective dose for blocking the transient current", "value": "< 4.52"}, {"measurement": "capsaicin-induced thermal hyperalgesia", "setting": "[4]", "value": "significantly reduces"}, {"measurement": "allodynia with respect to vehicle injected controls", "setting": "[5]; doses of 300 mg/kg, i.p., FIG. 9", "value": "significantly reduced"}, {"measurement": "reversal of mechanical allodynia", "setting": "[5]; doses of 30 and 300 mg/kg, FIG. 9 legend", "value": "significantly reduced"}, {"measurement": "bursting activity (spontaneous bursts of action potentials)", "setting": "[6]", "value": "bursting activity was reduced"}, {"measurement": "spontaneous discharge of action potentials", "setting": "[6]", "value": "potently decreased"}, {"measurement": "retinal function as determined by ERG (b-wave and a-wave amplitude)", "setting": "[3]; 100 mg/kg i.p., after blue light exposure, FIG. 6", "value": "significantly preserves retinal function"}, {"measurement": "structural integrity of the retina by histology (ONL thickness, photoreceptor count)", "setting": "[3]; 100 mg/kg i.p., after blue light exposure, FIG. 7", "value": "preserved the structural integrity of the retina; also recorded: protects photoreceptors from blue-light induced toxicity"}]}
